Data taken from patent US6544996B2, “1-phenyl-4-(1-[2-aryl]cyclopropyl) methylpiperazines: dopamine receptor ligands” (Neurogen Corporation, priority 1999, dated 2003).

Legend:
[1] = target: T1, recombinantly produced D4 receptors from human (COS cells) (Homo sapiens, UniProt P21917); experiment: Determination of D4 receptor binding activity (3H-YM 09151-2 displacement)
T1 construct: expressed in transfected cells; host or cells: COS cells
T1 sequence (P21917 1-419): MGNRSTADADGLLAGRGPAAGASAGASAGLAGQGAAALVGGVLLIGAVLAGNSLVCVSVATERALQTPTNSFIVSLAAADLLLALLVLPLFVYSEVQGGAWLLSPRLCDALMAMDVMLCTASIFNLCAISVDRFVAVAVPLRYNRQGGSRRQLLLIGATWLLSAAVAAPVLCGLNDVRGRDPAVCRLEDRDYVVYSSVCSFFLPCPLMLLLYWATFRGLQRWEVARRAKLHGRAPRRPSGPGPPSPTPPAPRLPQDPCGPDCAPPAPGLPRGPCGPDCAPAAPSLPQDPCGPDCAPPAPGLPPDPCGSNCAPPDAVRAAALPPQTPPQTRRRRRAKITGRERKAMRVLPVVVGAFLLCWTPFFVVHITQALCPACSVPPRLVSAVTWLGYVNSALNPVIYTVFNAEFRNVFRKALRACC
Description: (§1) Pellets of COS cells containing recombinantly produced D2 or D4 receptors from human are used for the assays. The sample is homogenized in 100 volumes (w/vol) of 0.05 M Tris HCl buffer at 4° C. and pH 7.4. The sample is then centrifuged at 30,000×g and resuspended and rehomogenized. The sample is then centrifuged as described and the final tissue sample is frozen until use. The tissue is resuspended […] (wt/vol) in 0.05 M Tris HCl buffer containing 100 mM NaCl.

[2] = target: T2, recombinantly produced D2 receptors from human (COS cells) (Homo sapiens, UniProt P14416); experiment: biochemical; type: binding; conditions: COS cell pellets, 0.5 nM 3H-YM 09151-2
T2 construct: expressed in transfected cells; host or cells: COS cells
T2 sequence (P14416 whole entry): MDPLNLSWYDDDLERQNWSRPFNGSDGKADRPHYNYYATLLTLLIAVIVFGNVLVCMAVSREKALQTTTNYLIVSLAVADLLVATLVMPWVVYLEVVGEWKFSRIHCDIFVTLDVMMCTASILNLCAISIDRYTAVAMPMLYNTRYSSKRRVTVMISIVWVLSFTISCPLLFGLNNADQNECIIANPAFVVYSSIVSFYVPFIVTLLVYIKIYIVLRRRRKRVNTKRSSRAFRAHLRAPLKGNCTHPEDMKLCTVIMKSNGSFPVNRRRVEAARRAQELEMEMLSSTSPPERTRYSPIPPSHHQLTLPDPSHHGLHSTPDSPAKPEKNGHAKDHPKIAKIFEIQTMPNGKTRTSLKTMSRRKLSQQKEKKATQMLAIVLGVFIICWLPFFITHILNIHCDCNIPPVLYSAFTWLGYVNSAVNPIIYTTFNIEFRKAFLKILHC
Description: as §1

| SMILES | melting point | Ki [1] | Ki [2] |
| --- | --- | --- | --- |
| Br.Cc1cc(Br)ccc1N1CCN(C[C@@H]2C[C@H]2c2ccccc2)CC1 (relative stereo) | 182 to 183 °C |  |  |
| Br.Cc1cc([N+](=O)[O-])ccc1N1CCN(C[C@@H]2C[C@H]2c2ccccc2)CC1 (relative stereo) | 197 to 198 °C |  |  |
| Br.Cc1cc(N)ccc1N1CCN(C[C@@H]2C[C@H]2c2ccccc2)CC1 (relative stereo) | 284 to 285 °C |  |  |
| Clc1ccc([C@H]2C[C@@H]2CN2CCN(c3ccc(Cl)cc3)CC2)cc1 (relative stereo) [Compound 3, 1-(4-chlorophenyl)-4-(trans-2-[4-chlorophenyl]cyclopropyl)methylpiperazine] |  | 0.008 µM | 0.523 µM |
